Test results taken from US20260364101A1, “OLEUROPEIN IN THE MANAGEMENT OF CANCER” (FUNDACIÓN MIGUEL SERVET, priority 2023, published 2026).

Tests used:
MC38 cells = test: MC38 colorectal cancer mouse tumor model, with rechallenge; format: in vivo, C57BL/6 mice; conditions: MC38 s.c.
Description: C57BL/6 female mice were subcutaneously (s.c) injected with […] LLC cells or 0.5×10^6 MC38 cells per animal. When tumor growth reached an average diameter of 3.5 mm (day 0), mice received 100 μg of anti-PD-1 mAb (RPMI-14, BioXCell) intraperitoneally (i.p) at days 0, 5, and 13. Control mice received the same volume of saline. For oleuropein, mice received 300 μg oleuropein at days-1, 2, 4, 6, and 8. As negative control, the same volume of saline was injected.
The efficacy of all treatments was evaluated every two days by measuring two perpendicular tumor measurements. The size was calculated using the formula: Size=Length x Width. Mice were humanely sacrificed when tumor size reached ~150 mm^2, or when tumor ulceration or evident discomfort were observed. For rechallenge experiments in the MC38 model, mice that rejected tumors were injected s.c. with 5×10^5 MC38 cells in the left flank three months after the first tumor inoculation. Naïve mice were included as controls and development of tumors was evaluated for two months.
Tumor measurements of in vivo experiments are represented as tumor diameter (mm^2) and plotted either as individual data points for one individual mouse or as mean±SD as indicated in the figure legends. Statistical analysis was performed using one way ANOVA test followed by a Sidak's multiple comparison test at 0.05 level of significance. For in vivo experiments, to compare multiple experimental groups, one-way ANOVA test and Tukey's multiple comparison test were used. Two-tailed Student's t test was applied to compare two experimental groups. Survival of tumor-bearing mice is represented by Kaplan-Meier plots and analyzed by log-rank test. The p values <0.05 were considered statistically significant.
The efficacy of oleuropein and oleuropein/PD-1 blockade combinations were also tested in a colorectal cancer model. To this end, MC38 cells were subcutaneously implanted in mice and allowed to grow until tumors reached a diameter of about […]. Then, oleuropein was administered intraperitoneally one day prior to anti-PD1 mAb injection. […]

g-MDSC = test: quantitative proteomics and Ingenuity Pathway Analysis of g-MDSC; format: cell-based, mouse
Description: Immunosuppressive myeloid cell subsets resembling tumor-infiltrating subsets (g-MDSCs, m-MDSCs and TAMs) were differentiated from mouse bone marrow following published procedures using conditioning medium produced by LLC tumor cells stably expressing GMCSF and MCSF cells. g- and m-MDSCs were purified using the myeloid-derived suppressor cell isolation kit (Miltenyi Biotec, Bergisch, Germany) according to manufacturer's recommendations. MDSCs and TAMs were seeded with 500 nM BML-275 or 50 μM oleuropein and incubated for seven days.
A unique proteomic experiment was carried out with five biological replicates per sample (m-MDSC, g-MDSC and TAM). Cells were homogenized in a lysis buffer containing 7 M urea, 2 M thiourea 50 mM DTT. The homogenates were spun down at 14000 g for 1 h at 15 °C. Before proteomic analysis, protein extracts were diluted with Laemmli sample buffer in 100 μL and loaded into a 0.75 mm thick polyacrylamide gel with a 4% stacking gel casted over a 12.5% resolving gel. The run was stopped as soon as the front entered 3 mm into the resolving gel so that the whole proteome became concentrated in the stacking/resolving gel interface. Bands were stained with Coomassie Brilliant Blue, excised from the gel and protein enzymatic cleavage was carried out with trypsin (Promega; 1:20, w/w) at 37 °C for 16 h as previously described. Purification and concentration of peptides was performed using C18 Zip Tip Solid Phase Extraction (Millipore).
Peptide mixtures were separated by reverse phase chromatography using an UltiMate 3000 UHLPC System (Thermo Scientific) fitted with an Aurora packed emitter column (lonopticks, 25 cm×75 μm ID, 1.6 μm C18). Samples were first loaded for desalting and concentration into an Acclaim PepMap column (ThermoFisher, 0.5 cm×300 μm ID, 5 μm C18) packed with the same chemistry as the separating column. Mobile phases were 100% water 0.1% formic acid (FA) (buffer A) and 100% Acetonitrile 0.1% FA (buffer B). Column gradient was developed in a 120 min two step gradient from 5% B to 20% B in 90 min and 20% B to 32% B in 30 min. Column was equilibrated in 95% B for 10 min and 5% B for 20 min. During the whole process, the precolumn was in line with the column and the flow maintained all along the gradient at 300 nl/min. The column temperature was maintained at 40 °C using an integrated column oven (PRSO-V2, Sonation, Biberach, Germany) and interfaced online with the Orbitrap Exploris 480 MS. Spray voltage were set to 2 kV, funnel RF level at 40, and heated capillary temperature at 300 °C. For DDA experiments full MS resolutions were set to […] at m/z 200 and full MS AGC target was set to Standard with an IT mode Auto. Mass range was set to 375-1500. AGC target value for fragment spectra was set to Standard with a resolution of 15,000 and 3 seconds for cycle time. The intensity threshold was kept at 8E3. Isolation width was set at 1.4 m/z. Normalized collision energy was set at 30%. All data were acquired in centroid mode using positive polarity and peptide match was set to off, and isotope exclusion was on.
Raw files were processed with MaxQuant v1.6.17.0 using the integrated Andromeda Search engine. All data were searched against a target/decoy version of the mouse Uniprot Reference Proteome with March 2021 release. First search peptide tolerance was set to 20 ppm, main search peptide tolerance was set to 4.5 ppm. Fragment mass tolerance was set to 20 ppm. Trypsin was specified as enzyme, […] carbamidomethylation of cysteine was specified as fixed modification and peptide N-terminal acetylation, oxidation of methionine, deamidation of asparagine and glutamine and pyro-glutamate formation from glutamine and glutamate were considered variable modifications with a total of two variable modifications per peptide. […]

C/C=C1/[C@H](O[C@@H]2O[C@H](CO)[C@@H](O)[C@H](O)[C@H]2O)OC=C(C(=O)OC)[C@H]1CC(=O)OCCc1ccc(O)c(O)c1 [oleuropein]
cure rate (MC38 cells; oleuropein 300 μg i.p.): 16% | survival (MC38 cells; oleuropein 300 μg i.p. and/or anti-PD-1 mAb 100 μg i.p.): significant increase in survival | tumor growth (MC38 cells; oleuropein 300 μg i.p. or anti-PD-1 mAb 100 μg i.p.): significantly delayed the growth of MC38 tumors | AMPK signaling (g-MDSC; IPA, g-MDSC): upregulation | EIF2 signalling (g-MDSC; IPA, g-MDSC): downmodulated | NET signaling (g-MDSC; IPA, g-MDSC): upregulation | estrogen receptor signalling (g-MDSC; IPA, g-MDSC): downmodulated | fatty acid beta-oxidation (g-MDSC; IPA, g-MDSC): activated | fmIP signaling (g-MDSC; IPA, g-MDSC): upregulation | granzyme A signalling (g-MDSC; IPA, g-MDSC): downmodulated | mTOR signaling (g-MDSC; IPA, g-MDSC): upregulation | phospholipids (g-MDSC; IPA, g-MDSC): decrease | upstream regulator E2f3 (g-MDSC; IPA, g-MDSC): decrease | upstream regulator Eif6 (g-MDSC; IPA, g-MDSC): increase | upstream regulator Stat4 (g-MDSC; IPA, g-MDSC): inhibited | upstream regulator Tbk1 (g-MDSC; IPA, g-MDSC): inhibited | cellular programming / proteome of g-MDSC (g-MDSC; g-MDSC treated with oleuropein): acquiring an entirely different proteome | differentiation of myeloid cells to g-MDSC (g-MDSC; g-MDSC treated with oleuropein): prevented
